Results published in ChEMBL document CHEMBL3526085, “Decreased hepatic breast cancer resistance protein expression and function in multidrug resistance-associated protein 2-deficient (TR⁻) rats” (Drug Metab Dispos, 2011).

System: Hepatocyte
Details: rat, hepatocytes, 10 min, 5 µM

O=C(O)C[C@H](O)C[C@H](O)/C=C/c1c(C2CC2)nc2ccccc2c1-c1ccc(F)cc1 [PITAVASTATIN]
CLb: 52%
